From article PMC7489219 (Molecular Brain, 2020)
Structures can show the parent of a compound that is named as a salt.

System: T1, primary mouse cortical neurons
T1 construct: primary cortical neurons, DIV 10
Test: cells
Design: Protection from NMDA-induced (30 uM, 10 min) neuronal death; Hoechst nuclear morphology by automated microscopy
Details: Cortical neurone, 20 h, read-out: % inhibition, inhibition of NMDA-induced cell death (protection score), 30 min pre-treatment
Method: On DIV 10, compounds were applied to the cells reaching an end concentration of 10 μM. Cells were incubated for 30 min at 37 °C, 5% CO2 before adding NMDA (30 μM). Cells were incubated for another 10 min in the incubator, then washed twice with defined minimal medium containing 10 μM of the respective compound and incubated for an additional 20 h before readout. Untreated (no NMDA) and NMDA-only stimulated wells were treated with 0.1% DMSO. […] After 15 min of incubation at room temperature, cells were washed twice with phosphate buffered saline. […] Dead neurons were identified by amorphous or shrunken nuclei using CellProfiler and CellProfiler Analyst software. For all cell death analyses the experimental unit (N) is defined as an independent experiment using an independent neuronal preparation. For each independent experiment, data from 3 replicate wells (i.e., from 36 images), representing an average of 3000 cells was analyzed per condition. The survival rate S was calculated by dividing the number of living cells by the total number of cells. The survival rate was then used to calculate the protection score according to Scompound−Svehicle/Suntreated−Svehicle×100=%protection , where ‘compound’ refers to compound + NMDA treatment, ‘vehicle’ refers to vehicle + NMDA treatment, and ‘untreated’ refers to DMSO control. […] As a proof of principle, we next used our assay to screen two commercially available drug libraries. In these screens, primary cortical cells were incubated with test compounds at 10 μM concentration for 30 min before addition of 30 μM NMDA. After 10 min NMDA treatment, cells were washed with fresh medium and kept in the presence of test compounds for 20 h until assessment of cell viability. […] This library covers structurally diverse drugs from several fields such as oncology, cardiology, immunology, and neurology/psychiatry.

In the case of CC[C@H]1OC(=O)[C@H](C)[C@@H](O[C@H]2C[C@@](C)(OC)[C@@H](O)[C@H](C)O2)[C@H](C)[C@@H](O[C@@H]2O[C@H](C)C[C@H](N(C)C)[C@H]2O)[C@](C)(OC)C[C@@H](C)C(=O)[C@H](C)[C@@H](O)[C@]1(C)O [Clarithromycin (Biaxin, Klacid)], the inhibition at 10 µM is reported as -1.54%.
Molecule CCC[C@@H]1C[C@@H](C(=O)N[C@@H]([C@H]2O[C@H](SC)[C@H](O)[C@@H](O)[C@H]2O)[C@H](C)Cl)N(C)C1 [Clindamycin hydrochloride (Dalacin)] has an inhibition at 10 µM of 2.41%.
Nc1nc(Cl)nc2c1ncn2[C@@H]1O[C@H](CO)[C@@H](O)[C@@H]1F [Clofarabine] gave an inhibition at 10 µM of -10.2%.
With CCOC(=O)C(C)(C)Oc1ccc(Cl)cc1 [Clofibrate (Atromid-S)] the inhibition at 10 µM was -1.89%.
In the case of CCN(CC)CCOc1ccc(C(=C(Cl)c2ccccc2)c2ccccc2)cc1 [Clomifene citrate (Serophene)], the inhibition at 10 µM is reported as -1.18%.
CN(C)CCCN1c2ccccc2CCc2ccc(Cl)cc21 [Clomipramine hydrochloride (Anafranil)] gave an inhibition at 10 µM of -0.839%.
Clc1cccc(Cl)c1NC1=NCCN1 [Clonidine hydrochloride (Catapres)] was tested, and the inhibition at 10 µM was -1.98%.
Molecule COC(=O)[C@H](c1ccccc1Cl)N1CCc2sccc2C1 [Clopidogrel (Plavix)] has an inhibition at 10 µM of -12%.
For Nc1cc(C(Cl)=C(Cl)Cl)c(S(N)(=O)=O)cc1S(N)(=O)=O [Clorsulon], the inhibition at 10 µM was -1.66%.
With Clc1ccccc1C(c1ccccc1)(c1ccccc1)n1ccnc1 [Clotrimazole (Canesten)] the inhibition at 10 µM was -1.47%.
For Cc1onc(-c2ccccc2Cl)c1C(=O)N[C@@H]1C(=O)N2[C@@H]1SC(C)(C)[C@@H]2C(=O)O [Cloxacillin sodium (Cloxacap)], the inhibition at 10 µM was 0.144%.
Work on CN1CCN(C2=Nc3cc(Cl)ccc3Nc3ccccc32)CC1 [Clozapine (Clozaril)] yielded an inhibition at 10 µM of -5.01%.
With COC1=C(OC)C(=O)C(C/C=C(\C)CC/C=C(\C)CC/C=C(\C)CC/C=C(\C)CC/C=C(\C)CC/C=C(\C)CC/C=C(\C)CC/C=C(\C)CC/C=C(\C)CCC=C(C)C)=C(C)C1=O [Coenzyme Q10(CoQ10)] the inhibition at 10 µM was 9.82%.
Molecule CC(=O)OCC(=O)[C@@]1(O)CC[C@H]2[C@@H]3CCC4=CC(=O)CC[C@]4(C)[C@H]3C(=O)C[C@@]21C [Cortisone acetate (Cortone)] has an inhibition at 10 µM of -0.736%.
With C[C@H]1COC2=C1C(=O)C(=O)c1c2ccc2c1CCCC2(C)C [Cryptotanshinone] the inhibition at 10 µM was -2.15%.
Work on CN(C)c1ccc(C(=C2C=CC(=[N+](C)C)C=C2)c2ccc(N(C)C)cc2)cc1 [Crystal violet] yielded an inhibition at 10 µM of -3.37%.
C=C1C[C@@]2(O)O[C@@]3(C[C@H]2C(C)C)[C@@H](C)CC[C@@H]13 [Curcumol] showed an inhibition at 10 µM of 7.41%.
For N=c1ccn2c(n1)O[C@H]1[C@H](O)[C@@H](CO)O[C@H]12 [Cyclocytidine HCl], the inhibition at 10 µM was -2.19%.
Molecule CN[C@@H](C)[C@H]1[C@H](O)C[C@@]2(C)[C@@H]3CC[C@H]4C(C)(C)[C@@H](NC)CC[C@@]45C[C@@]35CC[C@]12C [Cyclovirobuxin D (Bebuxine)] has an inhibition at 10 µM of 17.2%.
Nc1ccn([C@@H]2O[C@H](CO)[C@@H](O)[C@@H]2O)c(=O)n1 [Cytarabine] showed an inhibition at 10 µM of 38.3%.
Molecule O=c1cccc2n1C[C@@H]1CNC[C@H]2C1 [Cytisine (Baphitoxine, Sophorine)] has an inhibition at 10 µM of -0.723%.
OC[C@@H](O)[C@@H](O)[C@H](O)[C@H](O)CO [D-Mannitol (Osmitrol)] showed an inhibition at 10 µM of 5.76%.
Molecule CN(C)/N=N/c1nc[nH]c1C(N)=O [Dacarbazine (DTIC-Dome)] has an inhibition at 10 µM of -1.39%.
O=c1c(-c2ccc(O)cc2)coc2cc(O)ccc12 [Daidzein] gave an inhibition at 10 µM of -2.08%.
CN(C)[C@@H](CCOc1cccc2ccccc12)c1ccccc1 [Dapoxetine hydrochloride (Priligy)] was tested, and the inhibition at 10 µM was -1.89%.
In the case of CCCCCCCCCC(=O)N[C@@H](Cc1c[nH]c2ccccc12)C(=O)N[C@H](CC(N)=O)C(=O)N[C@@H](CC(=O)O)C(=O)N[C@@H]1C(=O)NCC(=O)N[C@@H](CCCN)C(=O)N[C@@H](CC(=O)O)C(=O)N[C@H](C)C(=O)N[C@@H](CC(=O)O)C(=O)NCC(=O)N[C@H](CO)C(=O)N[C@@H]([C@H](C)CC(=O)O)C(=O)N[C@@H](CC(=O)c2ccccc2N)C(=O)O[C@@H]1C [Daptomycin], the inhibition at 10 µM is reported as -3.03%.
Work on Cc1nc(Nc2ncc(C(=O)Nc3c(C)cccc3Cl)s2)cc(N2CCN(CCO)CC2)n1 [Dasatinib (BMS-354825)] yielded an inhibition at 10 µM of -9.79%.
Nc1ncn([C@H]2C[C@H](O)[C@@H](CO)O2)c(=O)n1 [Decitabine] gave an inhibition at 10 µM of 11.3%.
CC(=O)OCC(=O)[C@@]12N=C(C)O[C@@H]1C[C@H]1[C@@H]3CCC4=CC(=O)C=C[C@]4(C)[C@H]3[C@@H](O)C[C@@]12C [Deflazacort (Calcort)] showed an inhibition at 10 µM of -1.74%.
For CC1(C)O[C@@H]2C[C@H]3[C@@H]4CCC5=CC(=O)C=C[C@]5(C)[C@H]4[C@@H](O)C[C@]3(C)[C@]2(C(=O)CO)O1 [Desonide], the inhibition at 10 µM was 9.64%.
C[C@@H]1C[C@H]2[C@@H]3CCC4=CC(=O)C=C[C@]4(C)[C@@]3(F)[C@@H](O)C[C@]2(C)[C@@]1(O)C(=O)CO [Dexamethasone] showed an inhibition at 10 µM of -9.25%.
With C[C@@H](CN1CC(=O)NC(=O)C1)N1CC(=O)NC(=O)C1 [Dexrazoxane Hydrochloride] the inhibition at 10 µM was -16.2%.
OC[C@H]1OC(O)[C@H](O)[C@@H](O)[C@@H]1O (stereo partly drawn) [Dextrose (D-glucose)] was tested, and the inhibition at 10 µM was -6.8%.
With O=C(O)Cc1ccccc1Nc1c(Cl)cccc1Cl [Diclofenac] the inhibition at 10 µM was -4.34%.
O=c1[nH]cnc2c1ncn2[C@H]1CC[C@@H](CO)O1 [Didanosine (Videx)] gave an inhibition at 10 µM of 11.6%.
With C[C@@H]1CC[C@H]2[C@@H](C)C(O)O[C@@H]3O[C@@]4(C)CC[C@@H]1[C@]32OO4 (stereo partly drawn) [Dihydroartemisinin (DHA)] the inhibition at 10 µM was -4.3%.
For O=C1c2c(O)cc(O)cc2O[C@H](c2cc(O)c(O)c(O)c2)[C@H]1O [Dihydromyricetin (Ampeloptin)], the inhibition at 10 µM was 21.4%.
With C[C@@H]1CC[C@@]2(OC1)O[C@H]1C[C@H]3[C@@H]4CC=C5C[C@@H](O[C@@H]6O[C@H](CO)[C@@H](O[C@@H]7O[C@@H](C)[C@H](O)[C@@H](O)[C@H]7O)[C@H](O)[C@H]6O[C@@H]6O[C@@H](C)[C@H](O)[C@@H](O)[C@H]6O)CC[C@]5(C)[C@H]4CC[C@]3(C)[C@H]1[C@@H]2C [Dioscin (Collettiside III)] the inhibition at 10 µM was 32.2%.
In the case of C[C@@H]1CC[C@@]2(OC1)O[C@H]1C[C@H]3[C@@H]4CC=C5C[C@@H](O)CC[C@]5(C)[C@H]4CC[C@]3(C)[C@H]1[C@@H]2C [Diosgenin], the inhibition at 10 µM is reported as -1.47%.
For COc1ccc(-c2cc(=O)c3c(O)cc(O)cc3o2)cc1O [Diosmetin (Luteolin 4-methyl ether)], the inhibition at 10 µM was 8.81%.
COc1ccc(-c2cc(=O)c3c(O)cc(O[C@@H]4O[C@H](CO[C@@H]5O[C@@H](C)[C@H](O)[C@@H](O)[C@H]5O)[C@@H](O)[C@H](O)[C@H]4O)cc3o2)cc1O [Diosmin] showed an inhibition at 10 µM of -0.0881%.
CN(C)CCOC(c1ccccc1)c1ccccc1 [Diphenhydramine HCl (Benadryl)] gave an inhibition at 10 µM of 1.97%.
For OCCN(CCO)c1nc(N2CCCCC2)c2nc(N(CCO)CCO)nc(N3CCCCC3)c2n1 [Dipyridamole (Persantine)], the inhibition at 10 µM was -3.58%.
Work on CCN(CC)C(=S)SSC(=S)N(CC)CC [Disulfiram (Antabuse)] yielded an inhibition at 10 µM of -13.6%.
With CCCC(CCC)C(=O)O [Divalproex sodium] the inhibition at 10 µM was 3.49%.
In the case of CC(=O)O[C@@]12CO[C@@H]1C[C@H](O)[C@@]1(C)C(=O)[C@H](O)C3=C(C)[C@@H](OC(=O)[C@H](O)[C@@H](NC(=O)OC(C)(C)C)c4ccccc4)C[C@@](O)([C@@H](OC(=O)c4ccccc4)[C@H]21)C3(C)C [Docetaxel (Taxotere)], the inhibition at 10 µM is reported as -4.27%.
Molecule O=c1[nH]c2ccccc2n1CCCN1CCC(n2c(=O)[nH]c3cc(Cl)ccc32)CC1 [Domperidone (Motilium)] has an inhibition at 10 µM of -9.12%.
COc1cc2c(cc1OC)C(=O)C(CC1CCN(Cc3ccccc3)CC1)C2 (stereo not drawn) [Donepezil HCl (Aricept)] gave an inhibition at 10 µM of -8.98%.
Molecule NCCc1ccc(O)c(O)c1 [Dopamine hydrochloride (Inotropin)] has an inhibition at 10 µM of -1.44%.
With C[C@@H](O)[C@H]1C(=O)N2C(C(=O)O)=C(S[C@@H]3CN[C@H](CNS(N)(=O)=O)C3)[C@H](C)[C@H]12 [Doripenem Hydrate] the inhibition at 10 µM was -0.0213%.
Molecule CCN[C@H]1C[C@H](C)S(=O)(=O)c2sc(S(N)(=O)=O)cc21 [Dorzolamide HCL] has an inhibition at 10 µM of 0.0606%.
With C[C@]12CCC(=O)C=C1[C@@H]1C[C@@H]1[C@H]1[C@@H]3[C@@H]4C[C@@H]4[C@@]4(CCC(=O)O4)[C@@]3(C)CC[C@@H]12 [Drospirenone] the inhibition at 10 µM was -0.385%.
Molecule C[C@]12C=CC(=O)N[C@@H]1CC[C@@H]1[C@@H]2CC[C@]2(C)[C@@H](C(=O)Nc3cc(C(F)(F)F)ccc3C(F)(F)F)CC[C@@H]12 [Dutasteride] has an inhibition at 10 µM of 113%.
In the case of Cn1c(=O)c2c(ncn2CC(O)CO)n(C)c1=O (stereo not drawn) [Dyphylline (Dilor)], the inhibition at 10 µM is reported as -0.361%.
